Reference: ChEMBL document CHEMBL1201862, “PubChem BioAssay data set” (2004)
Calls of active or inactive are those of the source.

Assays:
[1] = biological target: Large T antigen (Simian virus 40, UniProt P03070); format: functional, Betapolyomavirus macacae;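 also: Confirmatory-stage PubChem screen for compounds that inhibit SV40 T antigen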
[2] = biological target: T1, Rac GTPase-activating protein 1 (Homo sapiens, UniProt Q9H0H5); experiment: MgcRacGAP GTPase-activating activity inhibitors, confirmation, biochemical, ADP Hunter fluorescence, primary and confirmatory (AID 624330); format: functional
T1 sequence (Q9H0H5 whole entry): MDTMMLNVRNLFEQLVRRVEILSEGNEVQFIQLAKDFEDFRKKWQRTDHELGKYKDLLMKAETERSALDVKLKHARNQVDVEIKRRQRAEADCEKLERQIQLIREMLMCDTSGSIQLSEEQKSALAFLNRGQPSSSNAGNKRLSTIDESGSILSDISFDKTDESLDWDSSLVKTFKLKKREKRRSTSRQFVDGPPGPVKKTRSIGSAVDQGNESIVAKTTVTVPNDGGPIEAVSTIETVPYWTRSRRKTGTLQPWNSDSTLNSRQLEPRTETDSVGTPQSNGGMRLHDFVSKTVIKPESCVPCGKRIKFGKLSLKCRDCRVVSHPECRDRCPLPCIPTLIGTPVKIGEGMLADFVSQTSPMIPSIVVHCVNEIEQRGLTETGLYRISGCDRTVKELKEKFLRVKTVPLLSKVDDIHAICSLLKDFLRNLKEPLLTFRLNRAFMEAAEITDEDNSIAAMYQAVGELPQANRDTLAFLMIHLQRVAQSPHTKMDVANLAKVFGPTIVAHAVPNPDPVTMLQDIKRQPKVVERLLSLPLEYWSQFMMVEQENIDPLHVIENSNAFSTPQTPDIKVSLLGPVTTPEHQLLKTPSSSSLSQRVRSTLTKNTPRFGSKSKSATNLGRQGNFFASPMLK

[3] = Shn3 3'UTR reporter inhibitors, dose response, cell-based, Clone20 osteoblasts, firefly luciferase, cherry-picked (AID 624132); format: functional;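 also: firefly luciferase luminescence from reporter carrying the Shn3 3'UTR in osteoblasts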
[4] = HepG2 cell cytotoxicity, dose response, cytotoxicity control for Shn3 inhibitor project, CellTiter-Glo, cherry-picked (AID 624134); format: functional, cell-based
[5] = control 3'UTR Renilla luciferase suppression, dose response, counter-screen for Shn3 inhibitor project, cell-based, Clone20-Shn3RL, cherry-picked (AID 624133); format: functional
[6] = inhibitors of intracellular T. cruzi replication, confirmation, NIH3T3 host cells, beta-gal luminescence (AID 2044); format: functional, cell-based;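 also: intracellular parasites grown in NIH/3T3 mouse fibroblasts as host cells; luminescent beta-galactosidase reporter signal from transgenic T. cruzi replicating inside host cells; inhibitors lower the luminescence signal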
[7] = microbe, parasite or virus in culture; format: functional; details: Mycobacterium tuberculosis
[8] = cytotoxicity toward NIH3T3 fibroblasts, dose response, counter-screen, cell-based, ATP luminescence, mouse fibroblasts (AID 2010); format: functional;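 also: cells exposed to compound for about 90 hours before reading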
[9] = system: H9c2; experiment: cells; format: functional, cell-based; details: Rattus norvegicus, H9c2, Myocardium;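 also: confirmatory concentration-response retest of ultra-high-throughput screening hits for modulation of myocardial damage; cell death induced by hydrogen peroxide oxidative stress; compound pretreatment for 60 min then peroxide exposure for 2 h; potency is for protecting the cells against peroxide damage rather than for killing them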
[10] = P. falciparum Dd2 growth inhibitors, dose response, SYBR Green, cherry-picked samples (AID 1159567); format: functional, cell-based
[11] = biological target: FAD-linked sulfhydryl oxidase ALR (Homo sapiens, UniProt P55789); experiment: inhibitors of human ALR sulfhydryl oxidase, dose response, biochemical, H2O2 detection, luminescence, cherry-pick (AID 493248)
[12] = Luminescence Cell-Based Dose Confirmation HTS to Identify Activators of 5'UTR Stem-Loop Driven Alpha-Synuclein mRNA Translation in H4 Neuroglioblastoma Cells. [Related pubchem assays: 1829 (Project Summary), 1814 (Primary HTS)]; format: functional
[13] = Luminescence Cell-Based Dose Response HTS to Identify Activators of Luciferase Translation or Activity in H4 […] Cells. [Related pubchem assays: 1829 (Project Summary), 1814 (Primary HTS)]; format: functional
[14] = system: H4; experiment: Luminescence Cell-Based Dose Response HTS to Identify Activators of 5'UTR Stem-Loop Driven Prion Protein mRNA Translation in H4 Neuroglioblastoma Cells. [Related pubchem assays: 1829 (Project Summary), 1814 (Primary HTS)]; format: functional; details: Homo sapiens
[15] = biological target: Paired box protein Pax-8 (Homo sapiens, UniProt Q06710); experiment: inhibitors of PAX8-driven TPO luciferase reporter, dose response, RMG-I cells, cherry-pick (AID 687027); format: functional, cell-based;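 also: luciferase reporter driven by Pax8 target thyroperoxidase promoter measured by SteadyGlo luminescence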
[16] = cytotoxicity in OVCAR8 ovarian cancer cells, dose response, PAX8 project, cell-based, plate reader, dry powder samples (AID 743197); format: functional; details: OVCAR-8
[17] = Luminescence Cell-Based Dose Retest to Confirm Inhibitors of Cancer Stem Cells. [Related pubchem assays (depositor defined):AID2717, AID2721]; format: functional; details: Homo sapiens
[18] = system: INS1; experiment: beta cell apoptosis inhibitors, cytokine rescue, dose response, luminescence, retest (AID 449756); format: functional, cell-based; details: Rattus norvegicus;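 also: cell death triggered by IL-1 beta plus TNF-alpha plus IFN-gamma mixture; protective hits raise ATP signal compared with cytokine alone wells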
[19] = biological target: T2, Cytochrome P450 1A2 (Homo sapiens, UniProt P05177);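 also: PubChem cytochrome P450 panel assay, CYP1A2 panel member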
T2 sequence (P05177 whole entry): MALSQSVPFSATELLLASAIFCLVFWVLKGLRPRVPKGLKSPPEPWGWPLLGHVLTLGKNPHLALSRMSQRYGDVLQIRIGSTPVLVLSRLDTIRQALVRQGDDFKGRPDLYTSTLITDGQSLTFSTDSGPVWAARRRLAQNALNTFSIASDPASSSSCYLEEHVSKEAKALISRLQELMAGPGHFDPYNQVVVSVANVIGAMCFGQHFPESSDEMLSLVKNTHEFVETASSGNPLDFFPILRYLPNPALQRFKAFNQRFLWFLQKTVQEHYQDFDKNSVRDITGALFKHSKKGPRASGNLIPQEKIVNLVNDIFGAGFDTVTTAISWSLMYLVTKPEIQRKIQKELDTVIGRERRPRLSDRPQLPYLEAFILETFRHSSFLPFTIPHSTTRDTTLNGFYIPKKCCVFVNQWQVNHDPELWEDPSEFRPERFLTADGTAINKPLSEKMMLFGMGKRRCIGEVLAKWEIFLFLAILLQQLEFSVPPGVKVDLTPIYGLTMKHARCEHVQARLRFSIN

[20] = NIH-3T3 fibroblast cytotoxicity, dose response, cytotoxicity control, cell-based, fluorescence, Alamar Blue, secondary assay (AID 2327); format: functional;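 also: NIH-3T3 mouse fibroblasts cultured with fluconazole at 8 µg/mL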
[21] = system: Streptococcus sp. 'group A'; experiment: growth inhibition of control SK(-) GAS strain, dose response, counter-screen for streptokinase expression inhibitor project, luminescence, kanamycin, BacTiterGlo, confirmation (AID 1900); format: functional, organism-based
[22] = C. albicans growth with fluconazole, confirmation, fluorescence, retest (AID 2467); format: functional, cell-based
[23] = system: Streptococcus; experiment: Group A Streptococcus viability loss, dose response, counter-screen for streptokinase expression inhibitor project, luminescence, BacTiterGlo (AID 1915); format: functional, organism-based;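 also: potency for reduction of bacterial viability or growth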

Sequence of FAD-linked sulfhydryl oxidase ALR (P55789 whole entry): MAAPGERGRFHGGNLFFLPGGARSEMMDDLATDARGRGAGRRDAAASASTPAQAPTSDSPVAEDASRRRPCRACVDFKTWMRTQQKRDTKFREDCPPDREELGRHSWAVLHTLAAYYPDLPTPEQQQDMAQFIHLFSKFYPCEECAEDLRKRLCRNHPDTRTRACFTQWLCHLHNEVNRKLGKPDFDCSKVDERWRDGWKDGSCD
Sequence of Paired box protein Pax-8 (Q06710 whole entry): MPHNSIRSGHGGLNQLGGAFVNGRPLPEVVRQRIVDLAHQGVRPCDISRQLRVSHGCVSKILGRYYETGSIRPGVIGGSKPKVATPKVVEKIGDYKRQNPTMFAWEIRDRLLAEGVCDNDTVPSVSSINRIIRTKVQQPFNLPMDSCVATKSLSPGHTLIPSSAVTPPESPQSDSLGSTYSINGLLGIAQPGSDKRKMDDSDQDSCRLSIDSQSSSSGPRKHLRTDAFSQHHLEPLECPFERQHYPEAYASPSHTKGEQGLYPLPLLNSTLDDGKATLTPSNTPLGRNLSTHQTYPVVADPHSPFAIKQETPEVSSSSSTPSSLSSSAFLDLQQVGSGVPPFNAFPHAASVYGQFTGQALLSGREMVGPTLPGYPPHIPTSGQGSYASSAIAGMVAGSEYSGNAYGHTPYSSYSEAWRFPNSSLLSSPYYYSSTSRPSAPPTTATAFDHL
Sequence of Large T antigen (P03070 whole entry): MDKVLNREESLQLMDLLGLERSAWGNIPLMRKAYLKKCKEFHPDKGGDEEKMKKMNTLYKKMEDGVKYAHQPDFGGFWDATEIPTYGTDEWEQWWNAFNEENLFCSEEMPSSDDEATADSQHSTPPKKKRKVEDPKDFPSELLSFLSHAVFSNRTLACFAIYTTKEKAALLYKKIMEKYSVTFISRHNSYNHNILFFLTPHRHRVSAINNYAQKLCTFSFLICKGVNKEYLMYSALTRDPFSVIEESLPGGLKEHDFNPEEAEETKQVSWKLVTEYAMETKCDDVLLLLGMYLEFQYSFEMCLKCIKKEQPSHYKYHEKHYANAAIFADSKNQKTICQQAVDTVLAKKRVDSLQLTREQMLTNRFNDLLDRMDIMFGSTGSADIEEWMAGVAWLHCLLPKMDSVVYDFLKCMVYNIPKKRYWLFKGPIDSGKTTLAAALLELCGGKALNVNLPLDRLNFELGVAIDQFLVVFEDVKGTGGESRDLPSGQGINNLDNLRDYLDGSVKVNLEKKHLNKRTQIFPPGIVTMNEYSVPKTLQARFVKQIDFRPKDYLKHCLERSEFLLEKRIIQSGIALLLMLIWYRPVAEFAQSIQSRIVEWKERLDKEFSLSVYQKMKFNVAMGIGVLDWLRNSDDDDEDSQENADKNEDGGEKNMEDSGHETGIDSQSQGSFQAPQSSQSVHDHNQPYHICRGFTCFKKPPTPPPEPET

Compound: C=C1CC(C(=O)N/N=C/c2ccc(O)cc2)C1
- IC50 [1]: 9.17 µM (active)
- IC50 [2]: 42.6 µM (active)

Compound: Cc1nc2ccccn2c1C(=O)NC1CCCc2ccccc21 (configuration not stated)
- AC50 [3]: 2.47 µM (active)
- AC50 [4]: 46.8 µM (active)
- AC50 [5]: 4.51 µM (active)

Compound: Nc1c(N(CCC2=CCCCC2)C(=O)c2ccc([N+](=O)[O-])o2)c(=O)[nH]c(=O)n1Cc1ccccc1
- EC50 [6]: 0.345 µM (active)
- CC50 [7]: > 40 µM (active)
- EC50 [8]: > 60 µM (not active)

Compound: CC1(C)Cc2c(C#N)c(SCc3nc4ccccc4[nH]3)nc(N3CCOCC3)c2CO1
- IC50 [9]: 45.5 µM (inactive)

Compound: C[C@H](CO)N1C[C@H](C)[C@H](CN(C)C(=O)Nc2ccc(F)cc2)Oc2cc(/C=C/c3ccccc3)ccc2S1(=O)=O
- AC50 [10]: 5.46 µM (active)

Compound: COc1cc(CN2CC3(CN(C(=O)CN4CCOCC4)C3)c3c(n(C)c4cc(OC)ccc34)[C@@H]2CO)cc(OC)c1
- AC50 [10]: 6.16 µM (active)

Compound: O=C(O)CCCCCNc1nc(S)nc2ccccc12
- AC50 [11]: 7.38 µM (active)

Compound: C/C(=N\Nc1nnc2c3ccccc3n(C)c2n1)c1ccc(C)o1
- EC50 [12]: 17.5 µM (active)
- EC50 [13]: 71.3 µM (active)
- EC50 [14]: > 120 µM (not active)
- IC50 [9]: > 79 µM (inactive)

Compound: C[C@@H]1CCCCO[C@@H](CN(C)Cc2ccccc2)[C@@H](C)CN([C@@H](C)CO)C(=O)c2cc(NS(=O)(=O)c3ccc(Cl)cc3)ccc2O1
- AC50 [15]: 5.43 µM (active)
- AC50 [16]: 63.2 µM (active)

Compound: O=C(COC(=O)Cc1nnc(O)c2ccccc12)Nc1ccc(Cl)cc1F
- IC50 [9]: > 79 µM (inactive)

Compound: CC(C)NC(=O)C1CCN(C(=O)c2cc3sccc3n2Cc2ccc(F)cc2)CC1
- AC50 [3]: 5.05 µM (active)
- AC50 [4]: 36.6 µM (active)
- AC50 [5]: 8.2 µM (active)

Compound: COc1cccc(-c2cnc3c(NC(C)=O)cc(-c4cccc(NS(C)(=O)=O)c4)cn23)c1
- IC50 [9]: > 79 µM (inactive)

Compound: CN(c1ccccc1)S(=O)(=O)c1cccc(NC(=O)c2ccc3ncsc3c2)c1
- AC50 [3]: 17.2 µM (active)
- AC50 [4]: 53.8 µM (active)
- AC50 [5]: 13.3 µM (active)

Compound: O=C(C[C@H]1C[C@@H]2c3cc(NC(=O)Nc4ccc(C(F)(F)F)cc4)ccc3O[C@@H]2[C@@H](CO)O1)NCCc1ccccc1
- AC50 [15]: 2.07 µM (active)
- AC50 [16]: 60.1 µM (active)

Compound: COc1ccc2c3c(n(C)c2c1)[C@H](CO)N(C(=O)Nc1ccc(F)cc1)CC31CCN(C(=O)c2cccnc2)CC1
- AC50 [10]: 4.52 µM (active)

Compound: O=C(NCc1nnc(S)n1-c1ccc(Br)cc1)c1ccc(S(=O)(=O)N2CCCC2)cc1
- AC50 [11]: 6.96 µM (active)

Compound: C=C1CC2(CC(c3ccccc3)OC(c3ccccc3)C2)OC1=O (configuration not stated)
- AC50 [3]: 2.49 µM (active)
- AC50 [4]: 38.4 µM (active)
- AC50 [5]: 7.45 µM (active)

Compound: COc1ccc(-c2ccc3[nH]c4c(c3c2)CCN2C[C@H]3[C@H](C)ON(C)[C@H]3C[C@@H]42)cc1
- IC50 [9]: > 79 µM (inactive)

Compound: Cc1ccc2nc(-c3cccc(S(=O)(=O)N(C)C)c3)cn2c1
- AC50 [11]: 0.045 µM (active)

Compound: CC(=O)N1CCN(c2ccc(NCc3ccc(Br)o3)cc2)CC1
- AC50 [11]: 0.743 µM (active)
- IC50 [2]: 13.7 µM (active)

Compound: N#Cc1c(-c2cccs2)cc(-c2cccnc2)nc1N
- IC50 [9]: > 79 µM (inactive)

Compound: Oc1ccccc1N1CCN(c2nnnn2-c2ccccc2)CC1
- AC50 [11]: 7.83 µM (active)

Compound: O=[N+]([O-])c1c(O)nc(/C=C\c2cccc(Cl)c2)nc1O
- AC50 [11]: 0.737 µM (active)

Compound: CCOC(=O)c1ccc(NC(=O)c2[nH]cnc2C(=O)NCCNC(=O)c2nc[nH]c2C(=O)Nc2ccc(C(=O)OCC)cc2)cc1
- AC50 [17]: 0.65 µM (active)
- AC50 [3]: 5.51 µM (active)
- AC50 [4]: 9.03 µM (active)

Compound: C=C(C)C(=O)OCC(O)COc1ccc(C(C)(C)c2ccc(OCC(O)COC(=O)C(=C)C)cc2)cc1 (configuration not stated)
- CC50 [7]: > 40 µM (active)
- AC50 [18]: 15 µM (active)

Compound: Cc1cc(C(=O)N[C@H](c2ccccc2)[C@@]2(C)C[C@@H]2[C@@H](C)C(=O)Nc2ccc3ccccc3c2)n(C)n1
- CC50 [7]: > 40 µM (active)
- AC50 [19]: 20 µM (inconclusive)

Compound: O=C(c1ccc(F)cc1)N1CC(=O)N2[C@H](CO)[C@@H](c3ccc(/C=C/c4ccccc4)cc3)[C@@H]2C1
- AC50 [10]: 3.9 µM (active)

Compound: Cc1ccc(O)c(C(=O)CC(=O)c2ccccc2Cl)c1
- EC50 [20]: > 160 µM (inactive)
- EC50 [21]: 4.15 µM (active)
- EC50 [22]: 2.52 µM (active)
- CC50 [7]: 24.4 µM (active)
- EC50 [23]: 9.81 µM (active)

Compound: C[C@H](CO)N1C[C@H](C)[C@H](CN(C)C(=O)c2ccccc2)OCCCC[C@H](C)Oc2ccc(NC(=O)Nc3ccc(C(F)(F)F)cc3)cc2C1=O
- AC50 [15]: 5.26 µM (active)
- AC50 [16]: > 70 µM (inactive)

Compound: COc1cc(-c2cc(NC=O)c3ncc(-c4ccc(C(C)=O)cc4)n3c2)ccc1O
- IC50 [9]: > 79 µM (inactive)

Compound: CCOC(=O)c1cc(C)nc(Sc2ccc(C)cc2)c1C#N
- CC50 [7]: > 40 µM (active)

Compound: COc1ccc(C(C(O)C(=O)c2c[nH]c3ccccc23)N2CCN(c3ccc(OC)cc3)CC2)cc1 (configuration not stated)
- CC50 [7]: > 40 µM (active)

Compound: O=C(C1CC1)N1CC(=O)N2[C@H](CO)[C@@H](c3ccc(C#CCc4ccccc4)cc3)[C@@H]2C1
- AC50 [10]: 5.44 µM (active)

Compound: COc1ccc(-c2cc(NC=O)c3ncc(-c4cccc(C(C)=O)c4)n3c2)cc1
- IC50 [9]: > 79 µM (inactive)

Compound: Cc1c(N=C2NC(=O)/C(=C/c3ccc(O)cc3)S2)c(=O)n(-c2ccccc2)n1C
- IC50 [1]: 33.1 µM (active)
- IC50 [2]: 60.7 µM (active)
